# Test system: 521955-158-R6-J3-PDC complex spheroid growth, % test/control
# Assay: Anticancer human tumor 521955-158-R6-J3-PDC patient-derived pancreatic carcinoma cell line growth inhibition [Asc]
# Conditions: for IC50: curve of first compound; for viability, T/C: stronger effect = lower value
# In short: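 Tumor cells were grown as multicellular spheroids with stromal HUVEC and mesenchymal stem cells and treated singly or in combination. Concentrations fell in half-log steps from the clinical Cmax, or from 10 microM where none was known.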
# 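Note: spheroids exposed to compounds for 7 days.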
# 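Throughout, for viability, T/C: 100% = DMSO vehicle control wells.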
smiles,measurement,setting,value
CNC(C)C(=O)NC1CN(S(=O)(=O)c2cccc(S(=O)(=O)N3CCC4CCC(C(=O)NC(c5ccccc5)c5ccccc5)N4C(=O)C(NC(=O)C(C)NC)C3)c2)CCC2CCC(C(=O)NC(c3ccccc3)c3ccccc3)N2C1=O (centres undefined) + CCN1C(C(=O)NC23CCC(C(=O)O)(CC2)CC3)C(c2cccc(Cl)c2F)C2(C(=O)Nc3cc(Cl)ccc32)C12CCCCC2,IC50,second compound 0.00949 µM,> 1000 nM
same,IC50,second compound 0.03 µM,> 1000 nM
same,IC50,second compound 0.0949 µM,> 1000 nM
same,IC50,second compound 0.3 µM,> 1000 nM
same,IC50,second compound 0.949 µM,> 1000 nM
same,IC50,second compound 3 µM,> 1000 nM
same,"viability, T/C","second compound 0.00949 µM, first compound 0.00316 µM",110%
same,"viability, T/C","second compound 0.00949 µM, first compound 0.01 µM",95.2%
same,"viability, T/C","second compound 0.00949 µM, first compound 0.0316 µM",83.7%
same,"viability, T/C","second compound 0.00949 µM, first compound 0.1 µM",89.8%
same,"viability, T/C","second compound 0.00949 µM, first compound 0.316 µM",89.7%
same,"viability, T/C","second compound 0.00949 µM, first compound 1 µM",89.7%
same,"viability, T/C","second compound 0.03 µM, first compound 0.00316 µM",91.8%
same,"viability, T/C","second compound 0.03 µM, first compound 0.01 µM",96%
same,"viability, T/C","second compound 0.03 µM, first compound 0.0316 µM",113%
same,"viability, T/C","second compound 0.03 µM, first compound 0.1 µM",101%
same,"viability, T/C","second compound 0.03 µM, first compound 0.316 µM",69%
same,"viability, T/C","second compound 0.03 µM, first compound 1 µM",81.5%
same,"viability, T/C","second compound 0.0949 µM, first compound 0.00316 µM",102%
same,"viability, T/C","second compound 0.0949 µM, first compound 0.01 µM",89.9%
same,"viability, T/C","second compound 0.0949 µM, first compound 0.0316 µM",92.3%
same,"viability, T/C","second compound 0.0949 µM, first compound 0.1 µM",86.9%
same,"viability, T/C","second compound 0.0949 µM, first compound 0.316 µM",76.9%
same,"viability, T/C","second compound 0.0949 µM, first compound 1 µM",86.2%
same,"viability, T/C","second compound 0.3 µM, first compound 0.00316 µM",96.2%
same,"viability, T/C","second compound 0.3 µM, first compound 0.01 µM",111%
same,"viability, T/C","second compound 0.3 µM, first compound 0.0316 µM",100%
same,"viability, T/C","second compound 0.3 µM, first compound 0.1 µM",99.8%
same,"viability, T/C","second compound 0.3 µM, first compound 0.316 µM",93.5%
same,"viability, T/C","second compound 0.3 µM, first compound 1 µM",95%
same,"viability, T/C","second compound 0.949 µM, first compound 0.00316 µM",106%
same,"viability, T/C","second compound 0.949 µM, first compound 0.01 µM",85.1%
same,"viability, T/C","second compound 0.949 µM, first compound 0.0316 µM",93.7%
same,"viability, T/C","second compound 0.949 µM, first compound 0.1 µM",101%
same,"viability, T/C","second compound 0.949 µM, first compound 0.316 µM",96.8%
same,"viability, T/C","second compound 0.949 µM, first compound 1 µM",109%
same,"viability, T/C","second compound 3 µM, first compound 0.00316 µM",95%
same,"viability, T/C","second compound 3 µM, first compound 0.01 µM",96%
same,"viability, T/C","second compound 3 µM, first compound 0.0316 µM",108%
same,"viability, T/C","second compound 3 µM, first compound 0.1 µM",86.2%
same,"viability, T/C","second compound 3 µM, first compound 0.316 µM",96.6%
same,"viability, T/C","second compound 3 µM, first compound 1 µM",80.8%
C=C(F)C(=O)N1CCN(c2nc(OCC3CCCN3C)nc3c2CCN(c2cccc4cccc(Cl)c24)C3)CC1CC#N (centres undefined) + Cc1c(S(C)(=O)=O)c(-c2cc(F)cc(N3CCN(c4ccc(NS(=O)(=O)c5ccc(NC(CCN6CCC(C(=O)OCCCP(=O)(O)O)CC6)CSc6ccccc6)c(S(=O)(=O)C(F)(F)F)c5)cc4)CC3)c2)c(-c2ccc(Cl)cc2)n1C(C)C,IC50,second compound 0.0316 µM,3740 nM
same,IC50,second compound 0.1 µM,1000 nM
same,IC50,second compound 0.316 µM,111 nM
same,IC50,second compound 1 µM,< 31.6 nM
same,IC50,second compound 3.16 µM,< 31.6 nM
same,IC50,second compound 10 µM,< 31.6 nM
same,"viability, T/C","second compound 0.0316 µM, first compound 0.0316 µM",79.3%
same,"viability, T/C","second compound 0.0316 µM, first compound 0.1 µM",79.6%
same,"viability, T/C","second compound 0.0316 µM, first compound 0.316 µM",73.5%
same,"viability, T/C","second compound 0.0316 µM, first compound 1 µM",73.3%
same,"viability, T/C","second compound 0.0316 µM, first compound 3.16 µM",59.1%
same,"viability, T/C","second compound 0.0316 µM, first compound 10 µM",0.31%
same,"viability, T/C","second compound 0.1 µM, first compound 0.0316 µM",80.3%
same,"viability, T/C","second compound 0.1 µM, first compound 0.1 µM",65.3%
same,"viability, T/C","second compound 0.1 µM, first compound 0.316 µM",58.5%
same,"viability, T/C","second compound 0.1 µM, first compound 1 µM",47.1%
same,"viability, T/C","second compound 0.1 µM, first compound 3.16 µM",39.6%
same,"viability, T/C","second compound 0.1 µM, first compound 10 µM",0.27%
same,"viability, T/C","second compound 0.316 µM, first compound 0.0316 µM",57.9%
same,"viability, T/C","second compound 0.316 µM, first compound 0.1 µM",49.6%
same,"viability, T/C","second compound 0.316 µM, first compound 0.316 µM",37.9%
same,"viability, T/C","second compound 0.316 µM, first compound 1 µM",36.9%
same,"viability, T/C","second compound 0.316 µM, first compound 3.16 µM",23.3%
same,"viability, T/C","second compound 0.316 µM, first compound 10 µM",0.26%
same,"viability, T/C","second compound 1 µM, first compound 0.0316 µM",40.1%
same,"viability, T/C","second compound 1 µM, first compound 0.1 µM",34.3%
same,"viability, T/C","second compound 1 µM, first compound 0.316 µM",28.4%
same,"viability, T/C","second compound 1 µM, first compound 1 µM",17.8%
same,"viability, T/C","second compound 1 µM, first compound 3.16 µM",8.04%
same,"viability, T/C","second compound 1 µM, first compound 10 µM",0.21%
same,"viability, T/C","second compound 3.16 µM, first compound 0.0316 µM",18.4%
same,"viability, T/C","second compound 3.16 µM, first compound 0.1 µM",16.9%
same,"viability, T/C","second compound 3.16 µM, first compound 0.316 µM",15.8%
same,"viability, T/C","second compound 3.16 µM, first compound 1 µM",10%
same,"viability, T/C","second compound 3.16 µM, first compound 3.16 µM",0.82%
same,"viability, T/C","second compound 3.16 µM, first compound 10 µM",0.2%
same,"viability, T/C","second compound 10 µM, first compound 0.0316 µM",13.4%
same,"viability, T/C","second compound 10 µM, first compound 0.1 µM",18.4%
same,"viability, T/C","second compound 10 µM, first compound 0.316 µM",21.8%
same,"viability, T/C","second compound 10 µM, first compound 1 µM",9.59%
same,"viability, T/C","second compound 10 µM, first compound 3.16 µM",0.77%
same,"viability, T/C","second compound 10 µM, first compound 10 µM",0.15%

# From PubChem BioAssay AID1963451 (Molecular Pharmacology Branch, DTP, NCI, 2024)
